{"source": "patent US9408831B2", "about": "“Methods for treating respiratory viral infection” (Celgene Corporation, priority 2010, dated 2016)", "format_in_all_cases": "in vivo, mice", "key": {"[1]": {"system": "influenza X31 strain (H3N2)"}, "[2]": {"system": "influenza X31 strain (H3N2)", "experiment": "Total viable cell counts in the airway (BAL) and lung tissue, trypan blue exclusion", "settings": "100 μg/mouse i.p. daily"}, "[3]": {"system": "influenza X31 strain (H3N2)", "experiment": "Macrophages and neutrophils in airspaces and lung by flow cytometry"}, "[4]": {"system": "influenza X31 strain (H3N2)", "experiment": "T cell recruitment (CD4, CD8 surface markers) by flow cytometry"}, "[5]": {"system": "influenza X31 strain (H3N2)", "settings": "lung homogenates, FIG. 9"}, "[6]": {"system": "influenza X31 strain (H3N2)", "settings": "day 7"}, "[7]": {"settings": "day 7, between the animal groups"}, "[8]": {"settings": "early (day 3), 100 μg/mouse i.p. daily, FIG. 5"}}, "note": "“Also recorded” adds a separate entry of the source.", "data": [{"smiles": "COc1ccc(C(CC(N)=O)N2Cc3ccccc3C2=O)cc1OC", "note": "(stereo not shown) [Compound 1]", "values": [{"measurement": "weight loss (percent original weight)", "setting": "[1]; 100 μg/mouse i.p. daily days 0-6, vs vehicle control and untreated, FIG. 1", "result": "significantly reduced weight loss"}, {"measurement": "visible health appearance", "setting": "[1]; controls hunched and cachexic on day 5", "result": "appeared visibly in better health"}, {"measurement": "cellular infiltrate into the airway (BAL), total viable cells", "setting": "[2]; […], FIG. 2", "result": "significantly reduced the cellular infiltrate"}, {"measurement": "cell counts in the airway (BAL fluid) relative to infected mice not treated", "setting": "[2]; day 3", "result": "less than half"}, {"measurement": "reduction of cellular infiltrate in the lung parenchyma", "setting": "[2]; day 3 or day 7, FIG. 2", "result": "not observed"}, {"measurement": "reduction of cellular infiltrate into the airway (BAL)", "setting": "[2]; day 7, FIG. 2", "result": "not observed"}, {"measurement": "proportion of macrophages among cells recovered from the airspaces", "setting": "[3]; […], 100 μg/mouse i.p. daily, FIG. 3", "result": "higher proportion"}, {"measurement": "neutrophils (CD11c+ and Ly6g+) in the airspaces, reduction in total cells", "setting": "[3]; day 3, 100 μg/mouse i.p. daily, FIG. 4", "result": "primarily associated with neutrophils"}, {"measurement": "number of macrophages, all sites", "setting": "[3]; [7]", "result": "no significant differences"}, {"measurement": "number of neutrophils, all sites", "setting": "[3]; [7]", "result": "no significant differences"}, {"measurement": "CD8+ T cells", "setting": "[4]; any time point analyzed (day 3, day 7)", "result": "No difference"}, {"measurement": "early CD4+ T cell recruitment to the airways (BAL)", "setting": "[4]; day 3, 100 μg/mouse i.p. daily, FIG. 5", "result": "reduced"}, {"measurement": "T cell recruitment / later T cell populations (CD4)", "setting": "[4]; day 7, airway and lung, FIG. 6", "result": "no differences; also recorded: did not affect later T cell populations"}, {"measurement": "CD4+ T cells in the lung parenchyma", "setting": "[4]; [8]", "result": "corresponding accumulation"}, {"measurement": "T cell recruitment", "setting": "[4]; [8]", "result": "reduced T cell recruitment; also recorded: affected early T cell recruitment"}, {"measurement": "recovered viral titer", "setting": "[5]; early stages of viral replication (day 3)", "result": "blunted the recovered viral titer"}, {"measurement": "peak viral load", "setting": "[5]; 100 μg/mouse i.p. daily", "result": "reduced peak viral load"}, {"measurement": "CD8+ T cells cytokine expression", "setting": "[6]", "result": "remained unchanged"}, {"measurement": "CD4+ T cells producing IFNγ in the lung tissue", "setting": "[6]; vs untreated mice and vehicle controls, FIG. 7", "result": "partial reduction"}]}]}
